Test results as given in PubChem BioAssay AID1963426 (Molecular Pharmacology Branch, DTP, NCI, 2024).

System: 186277-243-T-J2-PDC complex spheroid growth, % test/control
Experiment: Anticancer human tumor 186277-243-T-J2-PDC patient-derived colon adenocarcinoma cell line growth inhibition [Asc]
Settings: for IC50: curve of first compound; for viability, T/C: stronger effect = lower value
Procedure: Multicellular complex tumor spheroid response to apoptosis pathway targeting inhibitors Alrizomadlin, Pelcitoclax, and Dasminapant in combination with a variety of drugs and investigational agents in selected tumor cell lines
The MDM2 inhibitor alrizomadlin, the Bcl-2/Bcl-xL inhibitor pelcitoclax, and the IAPs inhibitor dasminapant were evaluated both individually and in combination with standard of care and investigational anticancer small molecules within a complex spheroid model of solid tumors. . Complex spheroids include a stromal component modeled by human endothelial cells (HUVEC) and fibroblasts modeled by human mesenchymal stem cells (MSCs). The concentration ranges selected for each drug and investigational agent were based upon clinically achievable concentrations if the clinical Cmax of the agent was known.
Compounds. The drugs and investigational agents: alrizomadlin (APG-115; NSC831270), pelcitoclax (APG-1252; NSC835773), dasminapant (APG-1387;NSC834197), TAK-243 (NSC785004), copanlisib (NSC809693), olaparib (NSC753686), talazoparib (NSC767125), cobimetinib (NSC 768068), eltanexor (KPT-8602, NSC 794443), abemaciclib (NSC 768073), sotorasib (NSC818433), adagrasib (NSC 831453), MRTX-1133 (NSC 836407), Iadademestat (ORY1001, NSC 806812), and RMC-4630 (NSC839698), were obtained from the NCI Developmental Therapeutics Program Chemical Repository. The FDA-approved anticancer drug set is available from the Developmental Therapeutics Program at https://dtp.cancer.gov/organization/dscb/obtaining/available plates.htm. […] The stock solutions were prepared in dimethyl sulfoxide (DMSO, Sigma-Aldrich, St. Louis, MO, cat. D2650) at 800-fold the tested concentration and stored at -70 degrees C prior to their use. All drugs and investigational agents were tested over a range starting from a high concentration at or near the clinical Cmax and decreasing in half-log increments. If the clinical Cmax for an agent had not been determined, the highest concentration tested was 10 microM.
The patient-derived cancer (PDC) cell lines include five colon adenocarcinomas: 186277-243-T-J2-PDC, 616215-338-R-J1-PDC, 439559-082-T-J2-PDC, 463943-066-T-J2-PDC, and 519858-162-T-J1-PDC; three pancreatic carcinomas: 323965-272-R-J2-PDC, 521955-158-R6-J3-PDC, and 521955-158-R2-J5-PDC; two uterine sarcomas: 327498-152-R-J2-PDC and 993429-296-R-J1-PDC; two rhabdomyosarcomas: 755483-174-R-J1-PDC and 772245-204-R-J1-PDC; two soft tissue sarcomas: 126254-015-R-J1-PDC and 494315-158-R-J1-PDC; two malignant fibrous histiocytomas: 317291-083-R-J1-PDC and 596521-263-R-J1-PDC; two breast carcinomas: 171881-019-R-J1-PDC and 885512-296-R-J2-PDC; and one ovarian carcinoma: 6556581-035-R-J-PDC were obtained from the NCI PDMR, (https://pdmr.cancer.gov). The established cell lines HSSY-2 synovial sarcoma (RRID:CVCL 8719), SYO-1 synovial sarcoma (RRID:CVCL_7146), MPNST malignant peripheral neural sheath tumor were obtained from the Sloan Kettering Institute. The following established cell lines were purchased from the American Type Culture Collection (ATCC, Manassas, VA), Sor the received from the NCI repository:, PANC-1 pancreatic carcinoma (CRL-1469, RRID:CVCL_0480), OVCAR-5 ovarian carcinoma (RRID:CVCL_1628), OVCAR-8 ovarian carcinoma (RRID:CVCL_1629), , MCF-7 breast carcinoma (CRL-12584, RRID:CVCL_0031), MDA-MB-231 breast carcinoma (CRL-12532, RRID:CVCL_0062), NCI-H1876 small cell lung carcinoma (CRL-5902, RRID:CVCL_1503), NCI-H510A small cell lung carcinoma (HTB-184, RRID:CVCL_1565), NCI-H1417 (CRL-5869, RRID:CVCL_1469), and NCI-H196 small cell lung carcinoma (CRL-5823, RRID:CVCL_1509). Dr. Peter Houghton (Greehey Children's Cancer Research Institute, University of Texas Health Science Center, San Antonio, TX) provided Rh-18 rhabdomyosarcoma (RRID:CVCL_1659). Pooled donor human umbilical vein endothelial cells (HUVEC, Lonza, cat. CC-2519) and human mesenchymal stem cells (hMSC, Lonza, cat. PT-2501) were purchased from Lonza (Walkersville, MD).
Cell Culture. […]

[1] = second compound 0.03 µM, first compound 0.00316 µM
[2] = second compound 0.03 µM, first compound 0.01 µM
[3] = second compound 0.03 µM, first compound 0.0316 µM
[4] = second compound 0.03 µM, first compound 0.1 µM
[5] = second compound 0.03 µM, first compound 0.316 µM
[6] = second compound 0.03 µM, first compound 1 µM
[7] = second compound 0.0949 µM, first compound 0.00316 µM
[8] = second compound 0.0949 µM, first compound 0.01 µM
[9] = second compound 0.0949 µM, first compound 0.0316 µM
[10] = second compound 0.0949 µM, first compound 0.1 µM
[11] = second compound 0.0949 µM, first compound 0.316 µM
[12] = second compound 0.0949 µM, first compound 1 µM
[13] = second compound 0.3 µM, first compound 0.00316 µM
[14] = second compound 0.3 µM, first compound 0.01 µM
[15] = second compound 0.3 µM, first compound 0.0316 µM
[16] = second compound 0.3 µM, first compound 0.1 µM
[17] = second compound 0.3 µM, first compound 0.316 µM
[18] = second compound 0.3 µM, first compound 1 µM
[19] = second compound 0.949 µM, first compound 0.00316 µM
[20] = second compound 0.949 µM, first compound 0.01 µM
[21] = second compound 0.949 µM, first compound 0.0316 µM
[22] = second compound 0.949 µM, first compound 0.1 µM
[23] = second compound 0.949 µM, first compound 0.316 µM
[24] = second compound 0.949 µM, first compound 1 µM
[25] = second compound 3 µM, first compound 0.00316 µM
[26] = second compound 3 µM, first compound 0.01 µM
[27] = second compound 3 µM, first compound 0.0316 µM
[28] = second compound 3 µM, first compound 0.1 µM
[29] = second compound 3 µM, first compound 0.316 µM
[30] = second compound 3 µM, first compound 1 µM
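Also: spheroids exposed to agents for 7 days.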
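For viability, T/C in this document: 100% = DMSO vehicle control wells.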

Row | Compound | IC50 (second compound 0.03 µM) [nM] | IC50 (second compound 0.0949 µM) [nM] | IC50 (second compound 0.3 µM) [nM] | IC50 (second compound 0.949 µM) [nM] | IC50 (second compound 3 µM) [nM] | viability, T/C [1] [%] | viability, T/C [2] [%] | viability, T/C [3] [%] | viability, T/C [4] [%] | viability, T/C [5] [%] | viability, T/C [6] [%] | viability, T/C [7] [%] | viability, T/C [8] [%] | viability, T/C [9] [%] | viability, T/C [10] [%] | viability, T/C [11] [%] | viability, T/C [12] [%] | viability, T/C [13] [%] | viability, T/C [14] [%] | viability, T/C [15] [%] | also measured
1 | CCN1CCN(Cc2ccc(Nc3ncc(F)c(-c4cc(F)c5nc(C)n(C(C)C)c5c4)n3)nc2)CC1 + CCN1C(C(=O)NC23CCC(C(=O)O)(CC2)CC3)C(c2cccc(Cl)c2F)C2(C(=O)Nc3cc(Cl)ccc32)C12CCCCC2 | > 1000 | > 1000 | 704 | 24.6 | < 3.16 | 114 | 130 | 112 | 97 | 99.6 | 85.2 | 107 | 99.8 | 89.4 | 75 | 82.3 | 64.7 | 68.1 | 74.7 | 65.8 | viability, T/C [16]: 61.6%; viability, T/C [17]: 64.2%; viability, T/C [18]: 44.6%; viability, T/C [19]: 49.7%; viability, T/C [20]: 52.6%; viability, T/C [21]: 50.4%; viability, T/C [22]: 44.3%; viability, T/C [23]: 39.5%; viability, T/C [24]: 34.7%; viability, T/C [25]: 29.1%; viability, T/C [26]: 31.5%; viability, T/C [27]: 26.8%; viability, T/C [28]: 25.7%; viability, T/C [29]: 23.2%; viability, T/C [30]: 24.6%
2 | O=C(c1ccc(F)c(F)c1Nc1ccc(I)cc1F)N1CC(O)([C@@H]2CCCCN2)C1 + CCN1C(C(=O)NC23CCC(C(=O)O)(CC2)CC3)C(c2cccc(Cl)c2F)C2(C(=O)Nc3cc(Cl)ccc32)C12CCCCC2 | 72.8 | 54.1 | 14.1 | 4.49 | < 3.16 | 119 | 105 | 96.8 | 32.2 | 6.54 | 3.48 | 90 | 96 | 75.8 | 20 | 3.92 | 1.51 | 66.6 | 61.9 | 22.6 | viability, T/C [16]: 5.9%; viability, T/C [17]: 1.93%; viability, T/C [18]: 1.43%; viability, T/C [19]: 52.2%; viability, T/C [20]: 45%; viability, T/C [21]: 19%; viability, T/C [22]: 5.17%; viability, T/C [23]: 4.44%; viability, T/C [24]: 2.55%; viability, T/C [25]: 31.5%; viability, T/C [26]: 26.7%; viability, T/C [27]: 11.9%; viability, T/C [28]: 4.93%; viability, T/C [29]: 3.83%; viability, T/C [30]: 3.31%
